According to patent publication US8471063B2, “Michael systems as transglutaminase inhibitors” (Zedira GmbH, priority 2006, dated 2013):
pIC50: −log10 of the molar value. Like-named read-outs stand apart in the source and are kept apart here. *1 amine or outer side, *2 acyl side, *3 side chain or, on linkers, in order; H or OH if unused. Where a SMILES comes first, the peptide text is derived from it. [ ]: non-standard residue; d: D form. X3 = O=C([C@H](CC/C=C/[N+](=O)[O-])N[*:1])[*:2]; Phe(2,4-Cl2) = N[C@@H](Cc1ccc(Cl)cc1Cl)C(=O)O; X1 = CN(C)C(=O)/C=C/CC[C@H](N[*:1])C(=O)[*:2]; X4 = O=C([C@@H]1C(O)c2ccccc2CN1[*:1])[*:2]; hCit = NC(=O)NCCCC[C@H](N)C(=O)O; Aib = CC(C)(N)C(=O)O

Columns and labels:
Format in all cases: biochemical
TG3 = target: T1, TG3 (Homo sapiens, UniProt Q08188); assay: Transglutaminase inhibition, IC50 at TG3
T1 sequence (Q08188 1-693): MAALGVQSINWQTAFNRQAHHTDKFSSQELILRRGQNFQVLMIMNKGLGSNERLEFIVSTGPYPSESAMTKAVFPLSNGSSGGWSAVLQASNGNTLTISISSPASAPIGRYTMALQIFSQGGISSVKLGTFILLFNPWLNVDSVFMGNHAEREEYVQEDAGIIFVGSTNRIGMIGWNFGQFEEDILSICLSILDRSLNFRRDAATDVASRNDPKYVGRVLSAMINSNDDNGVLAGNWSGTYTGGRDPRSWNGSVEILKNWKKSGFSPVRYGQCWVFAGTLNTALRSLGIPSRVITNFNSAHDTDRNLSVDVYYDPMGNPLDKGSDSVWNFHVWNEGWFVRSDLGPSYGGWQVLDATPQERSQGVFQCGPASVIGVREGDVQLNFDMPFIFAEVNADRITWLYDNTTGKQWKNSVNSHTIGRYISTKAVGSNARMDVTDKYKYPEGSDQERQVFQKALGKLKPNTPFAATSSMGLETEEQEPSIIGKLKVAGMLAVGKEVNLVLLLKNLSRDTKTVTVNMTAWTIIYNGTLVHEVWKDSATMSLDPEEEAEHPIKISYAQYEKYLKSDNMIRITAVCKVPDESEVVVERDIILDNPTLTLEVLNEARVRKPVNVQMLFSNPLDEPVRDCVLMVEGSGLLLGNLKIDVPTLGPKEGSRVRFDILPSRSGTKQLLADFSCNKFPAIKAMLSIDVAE

TG6 = target: T2, TG6 (Homo sapiens, UniProt O95932); assay: Transglutaminase inhibition, IC50 at TG6
T2 construct: His6 (N); made in house; host or cells: E. coli BL21 (DE3)
T2 sequence (O95932 1-706): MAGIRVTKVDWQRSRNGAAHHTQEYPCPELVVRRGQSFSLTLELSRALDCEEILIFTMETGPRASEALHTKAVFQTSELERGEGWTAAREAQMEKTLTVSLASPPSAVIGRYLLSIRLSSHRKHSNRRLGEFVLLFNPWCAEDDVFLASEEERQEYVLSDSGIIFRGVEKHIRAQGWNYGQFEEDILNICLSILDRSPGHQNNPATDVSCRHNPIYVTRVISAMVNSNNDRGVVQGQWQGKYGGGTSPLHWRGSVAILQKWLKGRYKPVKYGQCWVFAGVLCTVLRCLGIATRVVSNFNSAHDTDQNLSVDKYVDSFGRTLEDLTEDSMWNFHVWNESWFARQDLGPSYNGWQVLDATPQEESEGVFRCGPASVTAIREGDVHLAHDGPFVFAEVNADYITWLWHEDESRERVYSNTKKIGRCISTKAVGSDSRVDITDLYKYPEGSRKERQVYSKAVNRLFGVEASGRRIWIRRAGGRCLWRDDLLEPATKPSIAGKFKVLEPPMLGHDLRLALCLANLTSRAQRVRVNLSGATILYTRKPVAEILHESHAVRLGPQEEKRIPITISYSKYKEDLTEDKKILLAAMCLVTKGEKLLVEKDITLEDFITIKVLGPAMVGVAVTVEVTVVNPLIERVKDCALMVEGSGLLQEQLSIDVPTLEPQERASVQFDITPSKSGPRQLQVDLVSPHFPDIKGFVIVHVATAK
Procedure: (§1) The genes encoding for TG6 and TG7 were amplified from TG6-cDNA and TG7-cDNA, respectively, with PCR according to standard procedures (both state-of-the-art according to U.S. Pat. No. 7,052,890). Through the primers used a NdeI restriction site and six histidine codons were inserted at the 5′ end and a BgIII restriction site (TG6) and a HindIII restriction site (TG7) at the 3′ end.
(§2) The Tg6 PCR product was treated with the restriction endonucleases NdeI and BgIII. In the NdeI and BamH I restricted vector pET 3a was inserted. The Tg7 PCR product was treated with the restriction endonucleases NdeI and HindIII. and in the likewise restricted vector pET 28b was inserted.
(§3) The E. coli strain BL21 (DE3) (Novagen, Darmstadt) was transformed with the obtained plasmids. A culture of one strain each was induced with IPTG and harvested. After cell disruption under high pressure homogenisation the disrupts were centrifuged and the supernatants were purified via metal ion affinity chromatography on HiTrap chelating HP columns (GE-Helathcare). The purified proteins TG6 and TG7 were analyzed by SDS-PAGE with Coomassie staining. All procedures used for the production of TG6 and TG7 are well known to the one skilled in the art.

TG7 = target: T3, TG7 (Homo sapiens, UniProt Q96PF1); assay: Transglutaminase inhibition, IC50 at TG7
T3 construct: His6 (N); made in house; host or cells: E. coli BL21 (DE3)
T3 sequence (Q96PF1 1-710): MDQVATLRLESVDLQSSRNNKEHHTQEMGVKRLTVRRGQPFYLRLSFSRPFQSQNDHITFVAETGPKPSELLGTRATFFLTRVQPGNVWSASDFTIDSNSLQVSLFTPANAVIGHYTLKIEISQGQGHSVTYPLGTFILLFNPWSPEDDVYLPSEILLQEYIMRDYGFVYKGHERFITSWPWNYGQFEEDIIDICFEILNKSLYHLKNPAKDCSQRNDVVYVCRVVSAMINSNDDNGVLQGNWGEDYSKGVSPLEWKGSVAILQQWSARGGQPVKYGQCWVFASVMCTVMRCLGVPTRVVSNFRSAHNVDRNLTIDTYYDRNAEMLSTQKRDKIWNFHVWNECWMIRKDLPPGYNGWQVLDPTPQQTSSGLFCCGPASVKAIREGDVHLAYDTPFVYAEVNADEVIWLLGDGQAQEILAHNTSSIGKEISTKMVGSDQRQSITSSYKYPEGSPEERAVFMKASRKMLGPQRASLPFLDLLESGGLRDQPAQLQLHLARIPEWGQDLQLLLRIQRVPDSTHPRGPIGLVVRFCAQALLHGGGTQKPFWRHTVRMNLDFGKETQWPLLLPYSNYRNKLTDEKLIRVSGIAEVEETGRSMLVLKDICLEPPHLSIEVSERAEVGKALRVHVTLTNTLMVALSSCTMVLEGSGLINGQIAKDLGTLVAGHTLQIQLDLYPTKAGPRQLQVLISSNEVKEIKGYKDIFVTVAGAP
Procedure: as §1, §2, §3

[1] = Table 2, read-out: IC50 value [TG3]
[2] = Table 2, read-out: IC50 value [TG6]
[3] = Table 2, read-out: IC50 value [TG7]

| Compound | pIC50 (TG3; [1]) | pIC50 (TG6; [2]) | pIC50 (TG7; [3]) | pIC50 (TG3) | pIC50 (TG6) | pIC50 (TG7) |
| --- | --- | --- | --- | --- | --- | --- |
| CC[C@H](C)[C@H](NC(=O)[C@H](CCC(N)=O)NC(=O)[C@H](CC/C=C/C(=O)N(C)C)NC(=O)[C@H](Cc1ccc(Cl)cc1Cl)NC(=O)C(C)(C)NC(C)=O)C(=O)N[C@H](C(=O)O)C(C)C [Compound 3.2.13] (Ac-[Aib][Phe(2,4-Cl2)][X1]QIV-OH) | < 4.00 | 5.40 | 4.34 | – | – | – |
| CC(=O)N[C@@H](CCC(N)=O)C(=O)N[C@@H](CCC(N)=O)C(=O)N[C@@H](CC/C=C/[N+](=O)[O-])C(=O)N[C@H](C(=O)N[C@@H](CCCCNC(N)=O)C(=O)N[C@@H](CCC(N)=O)C(=O)N1Cc2ccccc2C(O)[C@H]1C(N)=O)C(C)C (stereo partly drawn) [Compound 3.2.14] (Ac-QQ[X3]V[hCit]Q[X4]-NH2) | 5.64 | < 4.00 | < 4.00 | – | – | – |
| CC(=O)N[C@@H](CCl)C(=O)N1CSC[C@H]1C(=O)N[C@@H](CC/C=C/C(=O)c1ccc([N+](=O)[O-])cc1)C(=O)N[C@@H](CCC(N)=O)C(=O)N[C@@H](CC1CCCCC1)C(=O)Nc1ccc(C(=O)O)cc1 [Compound 3.2.16] | – | – | – | 4.32 | 5.70 | 5.47 |
